In ChEMBL document CHEMBL1145568, “Opioids and efflux transporters. Part 3: P-glycoprotein substrate activity of 3-hydroxyl addition to meperidine analogs” (Bioorg Med Chem Lett, 2008) one finds fold induction data, which are given here for four molecules.

Structures can show the parent of a compound that is named as a salt.

In this series the target is P-gp (ABCB1) ATPase (Homo sapiens, UniProt P08183). The series can be described thus: Stimulation of Pgp ATPase activity at 200 uM by Pgp-Glo assay system relative to control. To be noted: read-out: Fold change.
Sequence of P-gp (ABCB1) ATPase (P08183 whole entry): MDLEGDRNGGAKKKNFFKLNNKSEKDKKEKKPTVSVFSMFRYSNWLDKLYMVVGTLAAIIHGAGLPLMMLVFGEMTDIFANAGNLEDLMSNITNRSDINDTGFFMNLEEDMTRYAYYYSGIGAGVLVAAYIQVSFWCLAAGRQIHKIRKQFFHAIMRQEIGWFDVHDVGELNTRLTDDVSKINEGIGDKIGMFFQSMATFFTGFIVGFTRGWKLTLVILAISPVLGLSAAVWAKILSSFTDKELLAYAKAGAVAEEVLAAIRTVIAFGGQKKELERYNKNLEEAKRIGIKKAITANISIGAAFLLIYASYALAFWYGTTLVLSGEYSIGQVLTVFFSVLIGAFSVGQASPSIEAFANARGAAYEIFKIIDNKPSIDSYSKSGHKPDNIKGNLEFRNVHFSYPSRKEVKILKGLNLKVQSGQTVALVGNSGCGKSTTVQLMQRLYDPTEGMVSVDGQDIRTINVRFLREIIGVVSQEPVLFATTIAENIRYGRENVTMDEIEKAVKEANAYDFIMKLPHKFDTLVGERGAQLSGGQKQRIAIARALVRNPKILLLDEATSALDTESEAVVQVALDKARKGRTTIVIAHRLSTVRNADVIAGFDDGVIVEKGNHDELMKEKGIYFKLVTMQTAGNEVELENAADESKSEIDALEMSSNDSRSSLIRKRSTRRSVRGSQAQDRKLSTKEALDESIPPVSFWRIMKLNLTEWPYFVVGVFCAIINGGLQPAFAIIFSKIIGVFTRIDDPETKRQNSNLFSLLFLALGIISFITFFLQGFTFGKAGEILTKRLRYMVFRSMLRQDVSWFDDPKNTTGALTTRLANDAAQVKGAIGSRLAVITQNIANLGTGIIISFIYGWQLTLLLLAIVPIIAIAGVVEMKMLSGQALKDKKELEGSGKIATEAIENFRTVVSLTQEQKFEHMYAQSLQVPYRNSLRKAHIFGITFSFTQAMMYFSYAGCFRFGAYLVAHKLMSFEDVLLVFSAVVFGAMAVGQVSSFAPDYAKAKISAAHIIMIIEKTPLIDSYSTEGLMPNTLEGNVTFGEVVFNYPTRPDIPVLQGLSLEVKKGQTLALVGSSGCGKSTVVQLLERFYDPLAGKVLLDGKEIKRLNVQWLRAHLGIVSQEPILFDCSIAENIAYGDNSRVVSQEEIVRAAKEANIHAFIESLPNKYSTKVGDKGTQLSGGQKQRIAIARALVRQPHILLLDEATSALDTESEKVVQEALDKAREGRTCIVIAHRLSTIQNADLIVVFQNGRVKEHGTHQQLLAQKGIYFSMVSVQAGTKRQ

Regarding `CCC(=O)C1(c2ccccc2)CCN(C)CC1`, the fold induction at 200 µM is 1.37.

In the case of `CCOC(=O)C1(c2cccc(O)c2)CCN(C)CC1` [BEMIDONE], the fold induction at 200 µM came to 2.64.

With `CCC(=O)C1(c2cccc(O)c2)CCN(C)CC1` [KETOBEMIDONE OXALATE], the fold induction at 200 µM turned out to be 4.89.

`CCOC(=O)C1(c2ccccc2)CCN(C)CC1` [PETHIDINE OXALATE]: the fold induction at 200 µM was 1.78.
